The results in this text go back to ChEMBL document CHEMBL6121062, “Discovery, Optimization, and Preclinical Pharmacology of EP652, a METTL3 Inhibitor with Efficacy in Liquid and Solid Tumor Models” (J Med Chem, 2025).

One may read the IC50 as the concentration needed to halve the response being measured. Usually logD stands for lipophilicity at a set pH, counting ionised and neutral species. A low value points to a more hydrophilic compound. By half-life is commonly meant the time in which the quantity being followed falls by half. Low readings indicate rapid decline, high ones slow decline.

Data set [1] deals with T1, METTL3/METTL14 (Homo sapiens, UniProt Q86U44). The data set can be described thus: Displacement of [3H]-SAM from METTL3/METTL14 (unknown origin) using 5'biotinylated-UACACUCGAUCUGGACUAAAGGUGCUC-3' RNA as substrate preincubated for 10 mins followed by substrate/[3H]-SAM addition measured after 90 mins by SPA. In kind it is protein-complex assay. Background: Loss of bound radioactivity is the signal in a displacement assay; it reports binding, not function.

Data set [2] is described as follows: Lipophilicity, logD of compound in 1-octanol/PBS at pH 7.4 incubated for 24 hrs by HPLC analysis. In kind it is physicochemical.
Data set [3] is described as follows: Unbound clearance in Sprague-Dawley rat at 1 mg/kg/day, iv measured for 24 hrs by LC-MS/MS analysis. In kind it is ADME, organism-based. Particulars: in vivo.
Another data set relates to Kasumi 1. The data set can be described thus: Antiproliferative activity against human Kasumi 1 cells assessed as inhibition of cell viability incubated for 72 hrs by ATPlite assay. In kind it is functional, cell-based. Particulars: Kasumi 1, 72 h.
A short description of data set [4]: Unbound fraction in Sprague-Dawley rat plasma at 1 mg/kg/day, iv measured for 24 hrs by LC-MS/MS analysis. Particulars: in vivo. It is filed as ADME, organism-based.
The nature of data set [5]: Unbound AUC in Sprague-Dawley rat at 1 mg/kg/day, iv measured for 24 hrs by LC-MS/MS analysis. In kind it is ADME, organism-based. Particulars: in vivo.
The test system of the next data set is Caov-3 cell line. Description: Antiproliferative activity against human Caov-3 cells assessed as inhibition of cell viability incubated for 72 hrs by ATPlite assay. It is filed as functional, cell-based. The settings on record: Caov-3, 72 h.
Data set [6] is described as follows: Unbound AUC in mouse at 30 mg/kg, ip. In kind it is ADME, organism-based. Particulars: in vivo.
Data set [7] addresses T1, METTL3/METTL14. Description: Inhibition of METTL3/METTL14-mediated m6A mRNA expression in human SK-OV-3 cells incubated for 24 hrs by LC-MS/MS analysis. In kind it is cell-based.
A further data set concerns Calu-6. Description: Antiproliferative activity against human Calu-6 cells assessed as inhibition of cell viability incubated for 72 hrs by ATPlite assay. It is filed as functional, cell-based. Particulars: Calu-6, 72 h.
Data set [8] has as its target T1, METTL3/METTL14. The data set can be described thus: Inhibition of METTL3/METTL14-mediated m6A mRNA expression in human A549 cells incubated for 24 hrs by LC-MS/MS analysis. It is filed as cell-based.
For data set [9], the target named is T1, METTL3/METTL14. Description: Inhibition of METTL3/METTL14-mediated m6A mRNA expression in human FaDu cells incubated for 24 hrs by LC-MS/MS analysis. In kind it is cell-based.
The test system of the next data set is FaDu. The data set can be described thus: Antiproliferative activity against human FaDu cells assessed as inhibition of cell viability incubated for 72 hrs by ATPlite assay. It is filed as functional, cell-based. On the technique in general: In ATP-based viability assays light output follows the ATP content of the culture.
The target of data set [10] is T1, METTL3/METTL14. The data set can be described thus: Inhibition of METTL3/METTL14-mediated m6A mRNA expression in human MV4-11 cells incubated for 24 hrs by LC-MS/MS analysis. In kind it is cell-based.
The target of data set [11] is T1, METTL3/METTL14. The data set can be described thus: Inhibition of METTL3/METTL14-mediated m6A mRNA expression in human Kasumi 1 cells incubated for 24 hrs by LC-MS/MS analysis. In kind it is cell-based.
A further data set has as its system MV4-11. The data set can be described thus: Antiproliferative activity against human MV4-11 cells assessed as inhibition of cell viability incubated for 72 hrs by ATPlite assay. The settings on record: MV4-11, 72 h. It is filed as functional, cell-based.
A further data set concerns SK-OV-3. Description: Antiproliferative activity against human SK-OV-3 cells assessed as inhibition of cell viability incubated for 72 hrs by ATPlite assay. The settings on record: SK-OV-3, 72 h. It is filed as functional, cell-based.
The next data set relates to Rattus norvegicus. The data set can be described thus: In vivo inhibition of METTL3/METTL14-mediated m6A mRNA expression in PBMC of rat. In kind it is functional, organism-based. Particulars: dose 3-30 mg/kg.
Another data set relates to A549. Description: Antiproliferative activity against human A549 cells assessed as inhibition of cell viability incubated for 72 hrs by ATPlite assay. In kind it is functional, cell-based. The settings on record: A549, 72 h.
The test system of the next data set is NCI-H1650. Description: Growth inhibition of human NCI-H1650 cells spheroid model. It is filed as functional, cell-based.
A short description of data set [12]: In vivo inhibition of METTL3/METTL14-mediated m6A mRNA expression in PBMC of rat at 3 to 30 mg/kg relative to control. In kind it is functional. The settings on record: dose 3-30 mg/kg.
In data set [13] the target is T1, METTL3/METTL14. Description: Inhibition of METTL3/METTL14-mediated m6A mRNA expression in human Calu-6 cells incubated for 24 hrs by LC-MS/MS analysis. In kind it is cell-based.
The target of the next data set is Cytochrome P450 3A4 (Homo sapiens, UniProt P08684). Description: Inhibition of CYP3A4 (unknown origin). It is filed as ADME.
Data set [14] can be described thus: Half life in rat liver microsomes. It is filed as ADME, Microsome. Background: Liver microsomes are a subcellular fraction often used to study metabolism.

T1 sequence (Q86U44 whole entry): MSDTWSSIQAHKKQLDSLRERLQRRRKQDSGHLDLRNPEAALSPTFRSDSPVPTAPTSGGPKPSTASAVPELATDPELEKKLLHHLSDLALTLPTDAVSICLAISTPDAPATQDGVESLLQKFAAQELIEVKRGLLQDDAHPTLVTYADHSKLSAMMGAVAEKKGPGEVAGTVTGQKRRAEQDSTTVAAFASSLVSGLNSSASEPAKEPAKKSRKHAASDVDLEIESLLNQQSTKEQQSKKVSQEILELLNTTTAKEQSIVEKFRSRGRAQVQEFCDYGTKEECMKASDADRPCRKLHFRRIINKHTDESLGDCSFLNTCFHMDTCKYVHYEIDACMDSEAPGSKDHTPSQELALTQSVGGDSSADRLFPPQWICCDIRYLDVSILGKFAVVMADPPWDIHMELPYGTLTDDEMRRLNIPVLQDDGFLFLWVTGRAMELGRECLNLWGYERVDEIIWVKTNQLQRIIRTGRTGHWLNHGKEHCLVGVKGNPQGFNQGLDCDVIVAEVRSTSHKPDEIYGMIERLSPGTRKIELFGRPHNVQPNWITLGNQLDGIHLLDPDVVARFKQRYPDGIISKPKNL
T1 sequence (Q9HCE5 whole entry, further chain): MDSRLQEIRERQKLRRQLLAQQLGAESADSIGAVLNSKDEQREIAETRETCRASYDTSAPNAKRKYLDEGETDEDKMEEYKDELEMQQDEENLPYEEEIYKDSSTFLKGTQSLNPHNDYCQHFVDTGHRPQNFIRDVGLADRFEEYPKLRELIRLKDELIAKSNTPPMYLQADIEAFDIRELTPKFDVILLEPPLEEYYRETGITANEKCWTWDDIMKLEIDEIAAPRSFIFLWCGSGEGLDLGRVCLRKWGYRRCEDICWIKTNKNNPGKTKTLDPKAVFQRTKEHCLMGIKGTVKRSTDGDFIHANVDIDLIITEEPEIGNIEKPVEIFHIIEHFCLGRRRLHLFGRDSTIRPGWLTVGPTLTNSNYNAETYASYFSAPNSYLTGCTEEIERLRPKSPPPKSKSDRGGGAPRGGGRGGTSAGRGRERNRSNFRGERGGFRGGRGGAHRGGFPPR
Sequence of Cytochrome P450 3A4 (P08684 whole entry): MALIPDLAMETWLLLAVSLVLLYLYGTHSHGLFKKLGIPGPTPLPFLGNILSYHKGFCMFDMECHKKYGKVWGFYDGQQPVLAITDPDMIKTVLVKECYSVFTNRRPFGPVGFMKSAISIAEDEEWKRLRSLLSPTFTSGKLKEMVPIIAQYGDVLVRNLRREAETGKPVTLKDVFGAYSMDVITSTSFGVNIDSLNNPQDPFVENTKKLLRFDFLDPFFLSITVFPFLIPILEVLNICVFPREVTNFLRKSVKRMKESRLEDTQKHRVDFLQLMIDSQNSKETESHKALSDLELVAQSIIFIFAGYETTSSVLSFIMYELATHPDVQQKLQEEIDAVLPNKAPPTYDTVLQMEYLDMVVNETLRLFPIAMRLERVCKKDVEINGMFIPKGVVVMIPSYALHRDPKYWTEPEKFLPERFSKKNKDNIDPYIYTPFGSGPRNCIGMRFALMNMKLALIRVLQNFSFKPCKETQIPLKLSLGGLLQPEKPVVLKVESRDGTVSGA

With `COc1cncc(-c2cn(Cn3ccc(N4CCC[C@@H](NCC5CCC5)C4)cc3=O)nn2)c1`, the IC50 at METTL3/METTL14 [1] turned out to be 3 nM; in the data set with Kasumi 1, 1100 nM. The molecule also came in with a logD at 24 h in [2] of 1.51. The same molecule came in with a CL free in [3] of 854 mL/min/kg. The Fu in data set [4] turned out to be 9.3%. In [5], this molecule yielded a fAUC of 2.7 µM·min.
Regarding `COc1cncc(-c2cn(C(C)(C)c3ccc(N4CCC[C@@H](NCC5CCC5)C4)nn3)nn2)c1`, the IC50 is 6 nM on METTL3/METTL14 [1] and 2070 nM in the data set on Kasumi 1. Further, the logD at 24 h in data set [2] was found to be 1.69. This molecule also returned a CL free in data set [3] of 421 mL/min/kg. In addition, the Fu in data set [4] stood at 15.3%. This molecule also yielded a fAUC in data set [5] of 4.9 µM·min.
Regarding `COc1cncc(-c2cn([C@H](C)n3ccc(N4CCC[C@@H](NCC5CCC5)C4)cc3=O)nn2)c1`, the half-maximal inhibitory concentration (IC50) was 2 nM at METTL3/METTL14 [1] and 489 nM in the data set with Kasumi 1. This molecule also returned a logD at 24 h in data set [2] of 1.5. Further, the CL free in data set [3] was found to be 645 mL/min/kg. The molecule also came in with a Fu in [4] of 17.4%. Moreover, the fAUC in data set [5] was found to be 3.8 µM·min.
Turning to `CCC(c1ccc(N2CCC[C@@H](NCC3CCC3)C2)nn1)n1cc(-c2cncc(OC)c2)nn1` (some centres not stated), the figures for the IC50 on METTL3/METTL14 [1] and with Kasumi 1 were 31 nM and 6000 nM, respectively. In data set [2], this molecule yielded a logD at 24 h of 1.9. The Fu in data set [4] was 11.2%.
Take `CC(n1cc(-c2cncc(N3CCCC3)c2)nn1)n1ccc(N2CCC[C@@H](NCC3CCC3)C2)cc1=O` (some centres not stated): the values for the 50% inhibitory concentration (IC50) at METTL3/METTL14 [1] and in the data set with Kasumi 1 were 2 nM and 7 nM, respectively. In [2], this molecule showed a logD at 24 h of 2.49. The CL free in data set [3] is 1913 mL/min/kg. The same molecule displayed a fAUC in [5] of 1 µM·min.
On to `COc1cncc(-c2cn(C(C)c3ccc(N4CCC[C@@H](NCC5CCC5)C4)nn3)nn2)c1` (some centres not stated), for which the IC50 on METTL3/METTL14 [1] came out at 4 nM; with Kasumi 1, 904 nM. Besides, the logD at 24 h in data set [2] turned out to be 1.62. Moreover, the CL free in data set [3] was found to be 423 mL/min/kg. Besides, the Fu in data set [4] was 14%. Moreover, in data set [5], the fAUC is 5.3 µM·min.
On to `O=C(NCc1ccc2cc(CNCC3CCC3)[nH]c2c1)c1cc(=O)n2ccccc2n1`, for which the IC50 turned out to be 4 nM at METTL3/METTL14 [1]; 563 nM in the data set on Caov-3 cell line; 134 nM on METTL3/METTL14 [7]; 1140 nM in the data set on Calu-6; 264 nM against METTL3/METTL14 [8]; 331 nM against METTL3/METTL14 [9]. Also, the IC50 in the data set with FaDu came to 2210 nM; on METTL3/METTL14 [10] it was 182 nM; at METTL3/METTL14 [11] it was 138 nM; with MV4-11, 7630 nM; in the data set with SK-OV-3, 371 nM; with Kasumi 1, 1160 nM. Besides, the IC50 in the data set with A549 is greater than 5000 nM; in the data set on NCI-H1650, 2060 nM; against METTL3/METTL14 [13] it was 169 nM. In addition, the figures for the fAUC in data set [6] and in data set [5] were 298.1 µM·min and 4.6 µM·min, respectively. Also, the logD at 24 h in data set [2] amounted to 1.9. Further, the inhibition result with Rattus norvegicus is “Dose-dependent-effect”. For the same molecule, the “inhibition (INH)” value in data set [12] is listed as “<=61%”.
`COc1cncc(-c2cn(C(C)c3ccc(N4CCC[C@@H](NCC5CCC5)C4)cn3)nn2)c1` (some centres not stated): the IC50 at METTL3/METTL14 [1] was determined as 4 nM; in the data set with Kasumi 1, 2100 nM. The logD at 24 h in [2] is 1.65. The CL free in [3] came to 263 mL/min/kg. In data set [4], this molecule showed a Fu of 14.1%. The same molecule came in with a fAUC in data set [5] of 10.9 µM·min.
As to `CC(n1cc(-c2cncc(-n3cccn3)c2)nn1)n1ccc(N2CCC[C@@H](NCC3CCC3)C2)cc1=O` (some centres not stated), the figures for the IC50 at METTL3/METTL14 [1] and in the data set with Kasumi 1 were 2 nM and 301 nM, respectively. In data set [2], this molecule returned a logD at 24 h of 1.8. In data set [3], the CL free is 529 mL/min/kg. Also, in data set [5], the fAUC came out at 3.3 µM·min.
On to `COc1cncc(-c2cn(Cc3ccc(N4CCC[C@@H](NCC5CCC5)C4)nn3)nn2)c1`, for which the IC50 at METTL3/METTL14 [1] worked out at 6 nM; in the data set on Kasumi 1 it was 1930 nM. The molecule further yielded a logD at 24 h in [2] of 1.47. The same molecule registered a CL free in data set [3] of 596 mL/min/kg. In [4], the Fu was found to be 11.1%. Further, the fAUC in data set [5] was determined as 5.7 µM·min.
As to `COc1cc(-c2cn(C(C)n3ccc(N4CCC[C@@H](NCC5CCC5)C4)cc3=O)nn2)c2cn[nH]c2c1` (some centres not stated), the values for the IC50 at METTL3/METTL14 [1] and in the data set with Kasumi 1 were 2 nM and 437 nM, respectively. The same molecule showed a logD at 24 h in data set [2] of 2.13. The CL free in data set [3] came to 2269 mL/min/kg. Moreover, the fAUC in data set [5] was 0.9 µM·min.
For `CCOc1cncc(-c2cn(C(C)n3ccc(N4CCC[C@@H](NCC5CCC5)C4)cc3=O)nn2)c1` (some centres not stated), in that order: 2 nM, 302 nM, 2.07, 1112 mL/min/kg and 2.1 µM·min.
In the case of `COc1cc(-c2cn(Cc3ccc(N4CCC[C@@H](NCC5CCC5)C4)nn3)nn2)c2cn[nH]c2c1`, the IC50 at METTL3/METTL14 [1] is 2 nM; at Cytochrome P450 3A4 it was roughly 800 nM; in the data set with Kasumi 1, 629 nM; against METTL3/METTL14 [13] it was 100 nM. This molecule also displayed a logD at 24 h in data set [2] of 1.89. In data set [14], this molecule showed a half-life of 16 min.
In the case of `COc1cncc(-c2cn(Cc3ccc(N4CCC[C@@H](NCC5CCC5)C4)cn3)nn2)c1`, the results for the IC50 at METTL3/METTL14 [1] and in the data set on Kasumi 1 were 4 nM and 894 nM, respectively. This molecule also registered a logD at 24 h in data set [2] of 1.21. For the same molecule, the CL free in data set [3] was found to be 934 mL/min/kg. In addition, the Fu in data set [4] is 8.9%. This molecule also came in with a fAUC in data set [5] of 2.4 µM·min.
